{"source": "paper PMC10311245", "about": "“Novel leaderless bacteriocin geobacillin 6 from thermophilic bacterium Parageobacillus thermoglucosidasius” (Frontiers in Microbiology, 2023)", "key": {"[1]": {"test_system": "Geobacillus kaustophilus HTA 426", "type": "cell-based", "experimental": "(§1) MICs of Geo6 were determined according to the method of [Wiegand et al. (2008)] with some modifications. An indicator strain sensitive to bacteriocin was grown overnight at 55°C in a thermoshaker. The next day it was inoculated (2–3%) into fresh medium and cultivated until OD reached 1–1.5. The culture was further diluted and adjusted to 1 × 10^6 CFU/ml. A 95 μl of the medium was mixed with 5 μl of Geo6 and serial two-fold dilutions of suspension were made with the medium. Next, diluted mixtures were dispersed (100 μl) in a 96-well plate. A volume of 100 μl of previously prepared cell suspension was dispersed and mixed with the diluted bacteriocin in every well on the plate. As a result, the final volume of suspension in the well containing diluted bacteriocin and bacteria cells was 200 μl and the final concentration of the bacteria culture in the well was 5 × 10^5 CFU/ml. For each experiment, three replicates were made in the plate. Wells with positive controls contained a mixture of medium (95 μl) and Geo6 (5 μl), and negative controls contained bacteria suspension (5 × 10^5 CFU/ml) in the medium (100 μl). The plate was placed into a bag to prevent medium evaporation and put into a box, which was incubated overnight at 55°C in a thermoshaker. The next day, the growth inhibition was evaluated in the wells of the plate."}, "[2]": {"test_system": "Geobacillus lituanicus DSM 15325^T", "type": "cell-based", "experimental": "as §1"}, "[3]": {"test_system": "Geobacillus thermodenitrificans DSM 465^T", "type": "cell-based", "experimental": "as §1"}, "[4]": {"test_system": "Geobacillus thermoleovorans DSM 5366^T", "type": "cell-based", "experimental": "as §1"}, "[5]": {"test_system": "Parageobacillus toebii DSM 14590^T", "type": "cell-based", "experimental": "as §1"}, "[6]": {"test_system": "G. kaustophilus HTA 426^T", "assay": "Live/dead assay (membrane integrity, SYTO9 and PI)", "type": "cell-based, Geobacillus kaustophilus", "details": "600 nM Geo6, 30 min, BHI, 55°C; fluorescence microscopy; red = damaged membrane", "experimental": "An indicator strain G. kaustophilus HTA 426^T sensitive to bacteriocin was grown in BHI medium at 55°C till OD 0.5 was reached. Next, the bacteria culture was treated with 600 nM of Geo6 and further cultivated for 30 min. Then, the cell culture was centrifuged at 3000 ×g for 5 min and further washed two times with 0.9% NaCl solution (centrifuged at 3000 ×g for 5 min). After the last wash, cells were suspended in 0.9% NaCl solution and stained using LIVE/DEAD BacLight Bacterial Viability Kit (Invitrogen) containing SYTO9 and […] according to manufacturers’ recommendations. Cells were incubated in the dark at room temperature for 15 min. Next, cells were centrifuged at 3000 ×g for 5 min and washed two times with 0.9% NaCl solution (centrifuged at 3000 ×g for 5 min). Further, 10 μl of Geo6 treated cells and nontreated control cells suspensions were spotted onto objective slides and examined using a fluorescence microscope using filters FITC (480/500 nm) and Texas Red (490/635 nm)."}, "[7]": {"assay": "Bacteriocin thermostability (activity by spot on a lawn assay after incubation)", "type": "physicochemical", "details": "spot on a lawn read-out; for Antibacterial activity retained after heat treatment: two-fold dilutions", "experimental": "[…] After incubation, serial two-fold dilutions of samples were made using medium, and further antibacterial activity of bacteriocin was assessed by spot on a lawn assay."}, "[8]": {"assay": "Bacteriocin stability in different pH ranges (activity by spot on a lawn assay after incubation)", "type": "physicochemical", "details": "pH range 3–11, 25 mM Britton-Robinson buffer, 1:20, room temperature 2 h, neutralized to pH 7; spot on a lawn read-out", "experimental": "For evaluation of stability at different pH ranges, purified recombinant Geo6 was mixed with 25 mM Britton-Robinson buffer solutions ([Ebihara et al., 2016]) with different pH values in a ratio of 1:20. After incubation at room temperature for 2 h samples were neutralized with NaOH or HCl solutions to pH 7. Further, samples were diluted two-fold using a medium and assessed for antibacterial activity using spot on a lawn assay."}, "[9]": {"assay": "Thermal shift assay (differential scanning fluorimetry, SYPRO Orange)", "type": "physicochemical", "details": "DSF, called inconclusive; for Melting temperature (Tm): 20–95°C, triplicate", "experimental": "As an indicator of thermal denaturation in varying pH or other conditions a fluorescent SYPRO Orange dye (Invitrogen) that binds to hydrophobic parts of protein during its unfolding was used in this work. SYPRO Orange 50× stock solution was prepared by diluting 2.5 μl of 5,000× concentrate into 250 μl of deionized (DI) water. A volume of 2.5 μl of 50× SYPRO Orange was aliquoted into a white HardShell 96-well PCR plate (Bio-Rad). Different pH buffer solutions (25 mM Briton-Robinson, pH 3–11; [Bendikienė et al., 2004]) were added to aliquoted SYPRO Orange followed by adding an appropriately diluted solution of purified Geo6 into the wells at a final concentration of 0.25 nmol/ml (1.3 μg/ml). The final volume of the mixture was 25 μl. The negative control was 25 mM of Briton-Robinson buffer solutions in a range of pH 3 to 11, with 2.5 μl of SYPRO Orange. Lysozyme (final concentration of 100 μg/ml) diluted in 25 mM Briton-Robinson buffer (pH 5 and 6) and mixed with 2.5 μl of SYPRO Orange was used as a positive control. A curve experiment for DNA with the elimination of the initial denaturation step at 95°C was used. The melt curve temperature range was set from 20°C to 95°C in increments of 0.5°C for 5 s. Each experimental condition was prepared in triplicate. Thermal shift analysis or differential scanning fluorimetry (DSF) of Geo6 was performed in CFX Touch Real TIME PCR System (Bio-Rad) using CFX Manager (Bio-Rad) software."}, "B. campestris ATCC 43754": {"test_system": "B. campestris ATCC 43754", "details": "ref Acedo et al., 2016; cited from earlier work", "excerpt": "(§2) For comparison, previous studies have shown that pallidocin, a glycocin-type bacteriocin produced by thermophilic bacteria A. pallidus strain 8, was active in the pM range against other thermophiles, and a 2.4 pM concentration of pallidocin inhibited the growth of thermophilic bacterium P. genomospecies 1 strain NUB36187 ([Kaunietis et al., 2019]). Other leaderless bacteriocins are active in the μM and nM ranges ([Fujita et al., 2007]; [Iwatani et al., 2007]) and have a broad spectrum of activity."}, "L. lactis ATCC 19257": {"test_system": "L. lactis ATCC 19257", "details": "ref Acedo et al., 2016; cited from earlier work", "excerpt": "as §2"}, "[10]": {"details": "CD spectroscopy, aqueous buffers; reversible two-state conversion between helical and unfolded forms; ref Hammond et al., 2020; cited from earlier work", "excerpt": "A recent study using the CD spectroscopy method confirmed the formation of helical structures in epidermicin NI01 and aureocin A53 in aqueous buffers. […] Due to these interesting findings, we decided to employ a thermal shift assay, also known as differential scanning fluorimetry (DSF), to analyze the thermal denaturation of Geo6 under different pH ranges and temperatures. Additionally, to the best of our knowledge, this ..."}, "B. coagulans JCM 2257^T": {"test_system": "B. coagulans JCM 2257^T", "details": "ref Iwatani et al., 2007; cited from earlier work", "excerpt": "as §2"}, "Escherichia coli JM109": {"test_system": "Escherichia coli JM109", "details": "ref Iwatani et al., 2007; cited from earlier work", "excerpt": "as §2"}, "[11]": {"test_system": "L. sakei subsp. sakei JCM 1157^T", "details": "ref Iwatani et al., 2007; cited from earlier work", "excerpt": "as §2"}, "[12]": {"test_system": "P. dextrinicus JCM 5887^T", "details": "ref Iwatani et al., 2007; cited from earlier work", "excerpt": "as §2"}, "[13]": {"test_system": "P. genomospecies 1 strain NUB36187", "details": "thermophilic bacterium; ref Kaunietis et al., 2019; cited from earlier work", "excerpt": "as §2"}}, "note": "No end group written: not given here."}
{"substance": "GMATFLRIVAQLSSKAAKWALDNKDKVLKWIRDGMAIDWIIDKINDIVG [Geo6, geobacillin 6]", "values": [{"measurement": "MIC", "setting": "[1]", "result": 0.293, "unit": "µM"}, {"measurement": "MIC", "setting": "[2]", "result": 0.585, "unit": "µM"}, {"measurement": "MIC", "setting": "[3]", "result": 2.34, "unit": "µM"}, {"measurement": "MIC", "setting": "[4]", "result": 0.585, "unit": "µM"}, {"measurement": "MIC", "setting": "[5]", "result": 4.45, "unit": "µM"}, {"measurement": "Membrane integrity (SYTO9/PI fluorescence of treated cells)", "setting": "[6]", "result": "all the cells exhibited red fluorescence"}, {"measurement": "Antibacterial activity retained after heat treatment", "setting": "[7]; 60°C for 2 h", "result": 100, "unit": "%"}, {"measurement": "Antibacterial activity retained after heat treatment", "setting": "[7]; 70°C for 2 h", "result": 100, "unit": "%"}, {"measurement": "Antibacterial activity retained after heat treatment", "setting": "[7]; 95°C for 6 h", "result": "did not abolish its activity"}, {"measurement": "Antibacterial activity retained after heat treatment", "setting": "[7]; 95°C for 6 h, listed as Geobacillin 6", "result": 100, "unit": "%"}, {"measurement": "Antibacterial activity retained after heat treatment", "setting": "[7]; 100°C for 2 h", "result": 100, "unit": "%"}, {"measurement": "Antibacterial activity retained after incubation at room temperature", "setting": "[7]; room temperature for 24 h", "result": 100, "unit": "%"}, {"measurement": "Antibacterial activity retained after incubation at different pH", "setting": "[8]", "result": 100, "unit": "%"}, {"measurement": "Melting temperature (Tm)", "setting": "[9]; 25 mM Briton-Robinson buffer pH 8, 0.25 nmol/ml (1.3 μg/ml)", "result": "none"}, {"measurement": "Melting temperature (Tm)", "setting": "[9]; 25 mM Briton-Robinson buffer pH 9, 0.25 nmol/ml (1.3 μg/ml)", "result": "76.75±1.77", "unit": "°C"}, {"measurement": "Melting temperature (Tm)", "setting": "[9]; 25 mM Briton-Robinson buffer pH 10, 0.25 nmol/ml (1.3 μg/ml)", "result": 76.5, "unit": "°C"}, {"measurement": "Melting temperature (Tm)", "setting": "[9]; 25 mM Briton-Robinson buffer pH 11, 0.25 nmol/ml (1.3 μg/ml)", "result": "80.5±0.7", "unit": "°C"}, {"measurement": "Melting temperatures (Tm), partial unfolding", "setting": "[9]; range of pH 9–11, 20–95°C", "result": "76.5–80.5 °C"}]}
{"substance": "aureocin A54 (MSWLNFLKYIAKYGKKAVSAAWKYKGKVLEWLNVGPTLEWVWQKLKKIAGL; UniProt Q8GPI4 1-51, looked up)", "values": [{"measurement": "MIC", "setting": "B. campestris ATCC 43754", "result": 2, "unit": "µM"}, {"measurement": "MIC", "setting": "L. lactis ATCC 19257", "result": 0.25, "unit": "µM"}]}
{"substance": "epidermicin NI01", "values": [{"measurement": "Denaturation temperature", "setting": "[10]", "result": 60, "unit": "°C"}]}
{"substance": "lacticin Q", "values": [{"measurement": "MIC", "setting": "B. coagulans JCM 2257^T", "result": 0.0016, "unit": "µM"}, {"measurement": "Antibacterial activity", "setting": "Escherichia coli JM109", "result": "No activity was detected"}, {"measurement": "MIC", "setting": "[11]", "result": 0.0032, "unit": "µM"}, {"measurement": "MIC", "setting": "[12]", "result": 0.0073, "unit": "µM"}]}
{"substance": "pallidocin", "values": [{"measurement": "Concentration that inhibited growth", "setting": "[13]", "result": 2.4, "unit": "pM"}]}
